The source of these data is patent US9149535B2, “Polymers and the preparation of nanogel drug cocktails” (University of South Carolina, priority 2012, dated 2015).

This assay has as its system cancer cells. The assay can be described thus: Intracellular trafficking by confocal laser scanning microscopy (CLSM). The following applies: 3 hr. Format: cell-based. An excerpt:
To monitor the intracellular trafficking of nanogel, confocal laser scanning microscopy (CLSM) was employed. […] Since only about 20% DOX could be released from nanogel under the intracellular environment (FIG. 2A), the signals should mainly represent ND nanogel. […] Due to its relatively large size, it will be impossible for it to pass the nuclear pore complex, which is about 40 nm.

On to `COc1cccc2c1C(=O)c1c(O)c3c(c(O)c1C2=O)C[C@@](O)(C(=O)CO)C[C@@H]3O[C@H]1C[C@H](N)[C@H](O)[C@H](C)O1` [DOX, doxorubicin], for which the intracellular localisation entry was “preferentially labels their nuclei”.
